Assay results from US20030104489A1, “Functional assay for agonist activation of receptors” (Pfizer Inc., priority 2001, published 2003).

Test system: D3-G[…]15 cells
Experiment: FLIPR assay of intracellular Ca2+ release in D3-Gα15 cells, effect of pre-incubation time at 37 °C (Table 2)
Type: cell-based
Conditions: for Ca2+ response (FLIPR signal), time at 37 °C: 5 min: 5 min pre-incubation at 37 °C; for Ca2+ response (FLIPR signal), time at 37 °C: 5 min / Ca2+ response (FLIPR signal), time at 37 °C: 15 min / % change (elevation of FLIPR signal, 5 min to 15 min pre-incubation at 37 °C): dopamine 100 nM; for Ca2+ response (FLIPR signal), time at 37 °C: 5 min / Ca2+ response (FLIPR signal), time at 37 °C: 15 min: (at or above EC90); for Ca2+ response (FLIPR signal), time at 37 °C: 15 min: 15 min pre-incubation at 37 °C; for % change (elevation of FLIPR signal, 5 min to 15 min pre-incubation at 37 °C): 15 min vs 5 min at 37 °C; for effect of prolonged preincubation at 37 °C on the induced Ca2+ response: ATP via endogenous purinergic receptors, ionomycin as ionophore
Protocol: The HEK293-Gα15 cell line stably expressing the D3 receptor was used to develop Ca^2+-based assay using the FLIPR-based method. Cells were plated in a 96 or 384 well poly-D lysine-coated FLIPR plates for 16-24 hours before the assay. Cells were loaded with cell dye-media solution (media −11 ml, dye-4 μM Fluo-4 AM, Pluronic® acid 22 ul, probenecid −110 ul of 260 mM solution) for 1 hour at 37° C. The plates were washed in the Skatron Embla™ plate washer with assay buffer (NaCl—0.145M, Glucose—0.01 M, KCl—0.005M, MgSO4—0.001 M, HEPES—0.01 M and CaCl2—0.002M) and stabilized for 30 minutes at 25° C. and 37° C., respectively, before starting the experiment. Antagonists were added 15 minutes prior to the agonist addition. The fluorescence intensities were measured using the excitation and emission wavelengths of 488 nm and 520 nm respectively. Data are taken as the average +S.D. of four replicates.
[…]. The elevation of FLIPR signal (in percentage) in 5 min and 15 min pre-incubation at 37° C. is shown.

SMILES	Ca2+ response (FLIPR signal), time at 37 °C: 5 min	Ca2+ response (FLIPR signal), time at 37 °C: 15 min	% change (elevation of FLIPR signal, 5 min to 15 min pre-incubation at 37 °C) [%]	effect of prolonged preincubation at 37 °C on the induced Ca2+ response
Nc1ncnc2c1ncn2[C@@H]1O[C@H](COP(=O)(O)OP(=O)(O)OP(=O)(O)O)[C@@H](O)[C@H]1O [ATP]	2859 ± 630	3346 ± 171	17	not affected
NCCc1ccc(O)c(O)c1 [Dopamine, dopamine]	157 ± 47	550 ± 38	257	
C[C@H](CCC(=O)O)C[C@H](C)C[C@H](C)C(=O)/C=C(\O)[C@H](C)C[C@H](C)C/C=C/[C@@H](C)[C@@H](O)[C@@H](C)[C@@H](O)C[C@@H]1CC[C@@](C)([C@H]2CC[C@@](C)([C@@H](C)O)O2)O1 [ionomycin]	8042 ± 652	8465 ± 132	5	not affected
